Experimental data: patent US6793938B2, “Biodegradable compositions for the controlled release of encapsulated substances” (Skye Pharma, Inc., priority 1998, dated 2004)

Experiment: Serum amikacin after single oral administration by gavage
Type: in vivo, male Harlan Sprague Dawley albino rats
Conditions: rat, 20 mg amikacin per rat
Method: The lipid-only, 1:1 lipid/polymer and the polymer-only pharmaceutical compositions with amikacin encapsulated therein, or unencapsulated amikacin as a solution at pH 8 was administered orally by gavage to 300 g male Harlan Sprague Dawley albino rats. The number of animals per group was six. The dose was 20 mg per rat and the volume was 2 mL. Serum was collected via venipuncture (saphenous vein) from unanesthetized animals at 15, 45, 90 min., 3, 8, 24, and 48 hours. The specimens were kept at −40° C. until analysis.
The concentration of amikacin in serum was determined using a competitive particle concentration fluorescence immunoassay. Polystyrene beads (Idexx Research Product Division, Memphis, Tenn.) were first coated with anti-amikacin antibody (The Binding Site, San Diego, Calif.). The beads were incubated with a combination of fluorescent-labeled amikacin (The Binding Site) and serum containing amikacin which compete for the anti-amikacin antibody sites on the beads. The amount of fluorescent-labeled amikacin bound to the beads was measured by a fluorescence concentration analyzer (Idexx Research Product Division) which is inversely proportional to the amikacin concentration in serum.

Compound: NCC[C@H](O)C(=O)N[C@@H]1C[C@H](N)[C@@H](O[C@H]2O[C@H](CN)[C@@H](O)[C@H](O)[C@H]2O)[C@H](O)[C@H]1O[C@H]1O[C@H](CO)[C@@H](O)[C@H](N)[C@H]1O [unencapsulated amikacin, amikacin]
- peak level of the concentration of amikacin in circulation: 1.82 ± 0.73 µg/mL
- time at which peak circulatory levels were reached: 45 min
